From US20030235543A1, “Topical administration of pharmacologically active bases for skin lightening” (priority 2002, published 2003)
Like-named read-outs stand apart in the source and are kept apart here.

Assays:
[1] = cited from earlier work; for Alkalinity / base strength in words: aqueous solution
[2] = In vitro keratolysis study: release of protein from ground callus (BioRad protein assay); settings: for Protein release compared with glycolic acid, other bases / water control: 10 minutes (Example 7); for Protein release compared with glycolic acid / water control: all time points (Example 6)
Method: An in vitro keratolysis study was performed to compare the capability of glycolic acid and a base for removing protein from stratum corneum. Adult foot callus was collected, grounded and the portion between 50-80 mesh was used. Glycolic acid and sodium hydroxide solutions (concentration=0.05 M) were prepared in distilled water. Ten mg of ground callus powder was place in a test tube. Four ml of a test chemical was added to the callus and the test tube was placed in a shaker and incubated in a water bath at 37° C. for a predetermined incubation time. The incubation time periods were 10 min., 40 min, 2 hours, 4 hours, 6 hours and 24 hours. Six samples of each base were tested a total of six times each at each of the aforementioned incubation time periods.
At the end of each incubation period, the test tube was removed from the shaker and the test tube was centrifuged. The solution was removed and filtered, and the protein in the solution was then determined using a BioRad® protein assay kit.

[3] = as above; settings: incubation 40 minutes (Table 3)
[4] = cited from earlier work
[5] = 0.05 M solution, 37° C., incubation 10 min (Table 1)
[6] = 0.05 M solution, 37° C., incubation 40 min (Table 1)
[7] = 0.05 M solution, 37° C., incubation 2 hours (Table 1)
[8] = 0.05 M solution, 37° C., incubation 4 hours (Table 1)
[9] = 0.05 M solution, 37° C., incubation 6 hours (Table 1)
[10] = 0.05 M solution, 37° C., incubation 24 hours (Table 1)
[11] = 0.05 M solutions, incubation time 10 minutes (Table 2, Example 7)

For `O.O.O=P([O-])([O-])O.[Na+].[Na+]` [Sodium phosphate, dibasic, dihydrate], the “pH of Aqueous Solution (concentration)” value ([1]; concentration not given) is listed as “˜9.5”.
For `[Na+].[OH-]` [NaOH, Sodium hydroxide], the “Protein released at 6 hours and 24 hours compared with 10 minutes, 40 minutes, 2 hours and 4 hours” value ([2]; 0.05 M) was “significantly higher”, the “Amount of Protein Released” value [2, 5] was 0.419 mg/4 ml and the “Amount of Protein Released” value [2, 6] was 0.739 mg/4 ml. For the same compound, the “Amount of Protein Released” value [2, 7] was 0.899 mg/4 ml, the “Amount of Protein Released” value [2, 8] was 1.003 mg/4 ml and the “Amount of Protein Released” value [2, 9] was 4.853 mg/4 ml. The “Amount of Protein Released” value [2, 10] was 5.148 mg/4 ml, the “Amount of Protein Released” value [2, 11] was 0.544 mg/4 ml and the “Protein release compared with glycolic acid, other bases / water control” value ([2]; 0.05 M) was “released more protein”. The “Protein release compared with glycolic acid / water control” value ([2]; 0.05 M) was “released more protein”, the “pH of Aqueous Solution (concentration)” value ([1]; 0.05%) was 12 and the “pH of Aqueous Solution (concentration)” value ([1]; 0.5%) was 13. The “pH of Aqueous Solution (concentration)” value ([1]; 5%) was 14, the “Amount of Protein Released” value ([3]; 0.005% solution) was 0.059 mg/4 ml and the “Amount of Protein Released” value ([3]; 0.01% solution) was 0.074 mg/4 ml.
For `OCCNCCO` [Diethanolamine], the “Amount of Protein Released” value [2, 11] is listed as 0.144 mg/4 ml and the “pH of Aqueous Solution (concentration)” value ([1]; 0.1 N) is listed as 11.0 (0.1 N).
In the case of `[O]=[Ca]` [Calcium oxide], the “Solubility in water” value [4] is listed as “Soluble in water, Form Ca(OH)2”.
For `O.O.O.O.O.O.O.O.O.O.O.O.O=P([O-])([O-])[O-].[Na+].[Na+].[Na+]` [Sodium phosphate, tribasic dodecahydrate], the “pH of Aqueous Solution (concentration)” value ([1]; 0.1%) is given as 11.5, the “pH of Aqueous Solution (concentration)” value ([1]; 0.5%) is given as 11.7 and the “pH of Aqueous Solution (concentration)” value ([1]; 1% (1.0%)) is given as 11.9.
For `NCCN` [Ethylenediamine], the “Alkalinity / base strength in words” value [1] is listed as “Strong base”, the “Amount of Protein Released” value ([3]; 0.005% solution) is listed as 0.059 mg/4 ml and the “Amount of Protein Released” value ([3]; 0.01% solution) is listed as 0.080 mg/4 ml.
For `O=P([O-])([O-])O.[Na+].[Na+]` [Sodium phosphate, dibasic, anhydrous], the “pH of Aqueous Solution (concentration)” value ([1]; 1% (1.0%)) is listed as 9.1 (1%).
In the case of `O=B[O-].[Na+]` [Sodium metaborate], the “Alkalinity / base strength in words” value [1] is listed as “Strongly alkaline”.
For `O=C([O-])[O-].[Na+].[Na+]` [Sodium carbonate anhydrous], the “pH of Aqueous Solution (concentration)” value ([1]; concentration not given) is given as “˜11.6”.
For `N.N.O=P(O)(O)O` [Ammonium phosphate, dibasic], the “pH of Aqueous Solution (concentration)” value ([1]; concentration not given) is given as “˜8”.
In the case of `NCCc1ccccc1` [Phenethylamine], the “Alkalinity / base strength in words” value [1] is given as “Strong base”.
In the case of `C[N+](C)(C)CC(=O)O` [Betaine], the “Amount of Protein Released” value [2, 11] is reported as 0.144 mg/4 ml.
For `O=C(O)CO` [Glycolic Acid, reference compound], the “Amount of Protein Released” value [2, 5] was 0.093 mg/4 ml, the “Amount of Protein Released” value [2, 6] was 0.175 mg/4 ml and the “Amount of Protein Released” value [2, 7] was 0.126 mg/4 ml. The “Amount of Protein Released” value [2, 8] was 0.219 mg/4 ml, the “Amount of Protein Released” value [2, 9] was 0.089 mg/4 ml and the “Amount of Protein Released” value [2, 10] was 0.173 mg/4 ml. For the same compound, the “Amount of Protein Released” value [2, 11] was 0.187 mg/4 ml, the “Protein release compared with glycolic acid, other bases / water control” value ([2]; 0.05 M) was “did not show significant differences in comparison with water” and the “Protein release compared with glycolic acid / water control” value ([2]; 0.05 M) was “did not show statistical differences in comparison with water”.
In the case of `O=P([O-])([O-])O.[Na+].[Na+]` [Sodium phosphate, dibasic], the “pH of Aqueous Solution (concentration)” value ([1]; concentration not given) is listed as “˜9.5”.
For `[O]=[Mg]` [Magnesium oxide], the “pH of Aqueous Solution (concentration)” value ([1]; saturated solution in water) is given as 10.3 (saturated aqueous solution).
In the case of `O=C([O-])[O-].[K+].[K+]` [Potassium carbonate], the “Amount of Protein Released” value ([3]; 0.005% solution) is reported as 0.068 mg/4 ml and the “Amount of Protein Released” value ([3]; 0.01% solution) is reported as 0.073 mg/4 ml.
With `N=C(N)NCCC[C@H](N)C(=O)O` [Arginine] the “Amount of Protein Released” value [2, 11] was 0.153 mg/4 ml.
In the case of `CC(=O)[O-].[Na+]` [Sodium acetate, anhydrous], the “pH of Aqueous Solution (concentration)” value ([1]; 0.1 N) is given as “˜8.9 (0.1 N)”.
For `CC(N)(CO)CO` [2-amino-2-methyl-1,3-propanediol], the “pH of Aqueous Solution (concentration)” value ([1]; 0.1 m) is listed as 10.8 (0.1 m).
For `N[C@@H](Cc1c[nH]c2ccccc12)C(=O)O` [L-tryptophan], the “Amount of Protein Released” value [2, 11] was 0.170 mg/4 ml.
For `CC(C)(N)CO` [2-amino-2-methyl-1-propanol], the “pH of Aqueous Solution (concentration)” value ([1]; 0.1 m) is given as 11.3 (0.1 m).
For `C1CCNCC1` [Piperidine], the “Alkalinity / base strength in words” value [1] is listed as “Strong base”, the “Amount of Protein Released” value ([3]; 0.005% solution) is listed as 0.066 mg/4 ml and the “Amount of Protein Released” value ([3]; 0.01% solution) is listed as 0.071 mg/4 ml.
For `O=P([O-])([O-])O.[K+].[K+]` [Potassium phosphate, dibasic], the “Alkalinity / base strength in words” value [1] is listed as “Aqueous solution is slightly alkaline”.
In the case of `CCC(N)CO` (centres unmarked) [2-amino-1-butanol], the “Amount of Protein Released” value [2, 11] is reported as 0.174 mg/4 ml.
For `CN(C)C` [Trimethylamine], the “Alkalinity / base strength in words” value [1] is listed as “Strong base”.
In the case of `O.O.O.O.O.O.O.O.O.O.O.O.O=P([O-])([O-])O.[Na+].[Na+]` [Sodium phosphate, dibasic, dodecahydrate], the “pH of Aqueous Solution (concentration)” value ([1]; concentration not given) is given as “˜9.5”.
In the case of `O.O.O.O.O.O.O.O=P([O-])([O-])O.[Na+].[Na+]` [Sodium phosphate, dibasic, heptahydrate], the “pH of Aqueous Solution (concentration)” value ([1]; concentration not given) is given as “˜9.5”.
In the case of `O=C([O-])CC(O)(CC(=O)[O-])C(=O)[O-].[K+].[K+].[K+]` [Potassium citrate], the “pH of Aqueous Solution (concentration)” value ([1]; concentration not given) is given as “˜8.5”.
In the case of `C1CCNC1` [Pyrrolidine], the “Alkalinity / base strength in words” value [1] is listed as “Strong base”, the “Amount of Protein Released” value ([3]; 0.005% solution) is listed as 0.060 mg/4 ml and the “Amount of Protein Released” value ([3]; 0.01% solution) is listed as 0.066 mg/4 ml.
For `NC1CCCCC1` [Cyclohexylamine], the “Alkalinity / base strength in words” value [1] is listed as “Strong base”.
For `N` [Ammonium hydroxide], the “pH of Aqueous Solution (concentration)” value ([1]; 0.001 N) is given as 10.27 and the “pH of Aqueous Solution (concentration)” value ([1]; 1 N) is given as 11.27.
With `CC(=O)[O-].[K+]` [Potassium acetate] the “Amount of Protein Released” value ([3]; 0.005% solution) was 0.060 mg/4 ml and the “Amount of Protein Released” value ([3]; 0.01% solution) was 0.064 mg/4 ml.
With `O=P([O-])([O-])[O-].[Na+].[Na+].[Na+]` [Sodium phosphate, tribasic] the “Amount of Protein Released” value ([3]; 0.005% solution) was 0.048 mg/4 ml and the “Amount of Protein Released” value ([3]; 0.01% solution) was 0.050 mg/4 ml.
